Laboratory results published in PubChem BioAssay (NCI).
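Following 48 hours of exposure in 96-well plates, responses at five concentrations were used to interpolate endpoints linearly. GI50: concentration for 50% inhibition of growth. The concentration for full growth arrest is given as TGI.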

Columns and labels:
Experiment in all cases: NCI tumour cell line growth inhibition, 48 h
786-0 renal = test system: 786-0 renal
EKVX NSCLC = test system: EKVX NSCLC
HCT-15 colon = test system: HCT-15 colon
HOP-62 NSCLC = test system: HOP-62 NSCLC
KM12 colon = test system: KM12 colon
MDA-MB-231 breast = test system: MDA-MB-231 breast
NCI-H23 lung = test system: NCI-H23 lung
NCI-H522 lung = test system: NCI-H522 lung
SK-MEL-2 melanoma = test system: SK-MEL-2 melanoma
SN12C renal = test system: SN12C renal

Compound: Oc1cc2c(cc1C(c1ccc3c(c1)OCO3)N1CCN(C(c3ccc4c(c3)OCO4)c3cc4c(cc3O)OCO4)CC1)OCO2 (stereo not given)
- TGI (786-0 renal): 25.8 µM
- TGI (EKVX NSCLC): 98.6 µM
- TGI (HCT-15 colon): 20.3 µM
- TGI (HOP-62 NSCLC): 64.7 µM
- TGI (KM12 colon): 30.8 µM
- TGI (MDA-MB-231 breast): 29.1 µM
- TGI (NCI-H23 lung): 35.4 µM
- TGI (NCI-H522 lung): 33.5 µM
- TGI (SK-MEL-2 melanoma): 41.6 µM
- TGI (SN12C renal): 31 µM

Compound: Cc1cc(S(=O)(=O)Nc2nc3ccccc3[nH]2)c(SCc2ccccc2)cc1Cl
- GI50 (786-0 renal): 62.9 µM
- TGI (786-0 renal): > 100 µM
- GI50 (EKVX NSCLC): > 100 µM
- TGI (EKVX NSCLC): > 100 µM
- GI50 (HCT-15 colon): > 100 µM
- TGI (HCT-15 colon): > 100 µM
- GI50 (HOP-62 NSCLC): 22.7 µM
- TGI (HOP-62 NSCLC): > 100 µM
- GI50 (KM12 colon): 40.4 µM
- TGI (KM12 colon): > 100 µM
- GI50 (MDA-MB-231 breast): 18.2 µM
- TGI (MDA-MB-231 breast): 51.5 µM
- GI50 (NCI-H23 lung): 54.9 µM
- TGI (NCI-H23 lung): > 100 µM
- GI50 (NCI-H522 lung): > 100 µM
- TGI (NCI-H522 lung): > 100 µM
- GI50 (SK-MEL-2 melanoma): > 100 µM
- TGI (SK-MEL-2 melanoma): > 100 µM
- GI50 (SN12C renal): 29.6 µM
- TGI (SN12C renal): > 100 µM

Compound: CNC12C3C4C1C1C2C3C41C(=O)N[C@H](C(=O)N(C)[C@H](C[C@@H](OC(C)=O)c1nc(C(=O)N[C@@H](Cc2ccccc2)C[C@H](C)C(=O)OC)cs1)C(C)C)C1CC1 (stereo not given in full)
- GI50 (786-0 renal): 0.577 µM
- TGI (786-0 renal): > 15 µM
- GI50 (EKVX NSCLC): 1.95 µM
- TGI (EKVX NSCLC): > 15 µM
- GI50 (HCT-15 colon): 0.831 µM
- TGI (HCT-15 colon): > 15 µM
- GI50 (HOP-62 NSCLC): 0.501 µM
- TGI (HOP-62 NSCLC): > 15 µM
- GI50 (KM12 colon): 0.276 µM
- TGI (KM12 colon): 6.69 µM
- GI50 (MDA-MB-231 breast): 0.402 µM
- TGI (MDA-MB-231 breast): 3.33 µM
- GI50 (NCI-H23 lung): 0.511 µM
- TGI (NCI-H23 lung): > 15 µM
- GI50 (NCI-H522 lung): 0.041 µM
- TGI (NCI-H522 lung): 0.524 µM
- GI50 (SK-MEL-2 melanoma): 0.189 µM
- GI50 (SN12C renal): 0.612 µM
- TGI (SN12C renal): > 15 µM

Compound: O=C1c2ccccc2C(=O)c2sc(Nc3ccc(Cl)cc3)nc21
- TGI (786-0 renal): 3.93 µM
- TGI (EKVX NSCLC): 17.9 µM
- TGI (HCT-15 colon): 3.8 µM
- TGI (HOP-62 NSCLC): 9.26 µM
- TGI (KM12 colon): 5.03 µM
- GI50 (MDA-MB-231 breast): 1.17 µM
- TGI (MDA-MB-231 breast): 7.38 µM
- TGI (NCI-H23 lung): 2.81 µM
- TGI (NCI-H522 lung): 3.28 µM
- TGI (SK-MEL-2 melanoma): 8.94 µM
- TGI (SN12C renal): 3.56 µM

Compound: Cc1[nH]c(=O)nc(N/N=C/c2ccc(Cl)cc2)c1C(=O)Nc1ccc(Cl)cc1
- TGI (786-0 renal): 47.6 µM
- TGI (EKVX NSCLC): > 100 µM
- TGI (HCT-15 colon): > 100 µM
- TGI (HOP-62 NSCLC): 26 µM
- TGI (KM12 colon): > 100 µM
- TGI (MDA-MB-231 breast): 26.2 µM
- TGI (NCI-H23 lung): > 93.1 µM
- TGI (NCI-H522 lung): 64.1 µM
- TGI (SK-MEL-2 melanoma): > 100 µM
- TGI (SN12C renal): > 100 µM

Compound: O=C1C(CO)=C[C@@H](O)[C@H]2O[C@@H]12
- TGI (786-0 renal): > 100 µM
- TGI (EKVX NSCLC): > 100 µM
- TGI (HCT-15 colon): > 100 µM
- TGI (HOP-62 NSCLC): > 100 µM
- TGI (KM12 colon): > 100 µM
- TGI (MDA-MB-231 breast): > 100 µM
- TGI (NCI-H23 lung): > 100 µM
- TGI (NCI-H522 lung): > 100 µM
- TGI (SK-MEL-2 melanoma): > 100 µM
- TGI (SN12C renal): 36.3 µM

Compound: Cn1ccc2c3c(=O)cc[nH]c3ccc21
- GI50 (786-0 renal): > 100 µM
- TGI (786-0 renal): > 100 µM
- GI50 (EKVX NSCLC): > 100 µM
- TGI (EKVX NSCLC): > 100 µM
- GI50 (HCT-15 colon): > 100 µM
- TGI (HCT-15 colon): > 100 µM
- GI50 (HOP-62 NSCLC): > 100 µM
- TGI (HOP-62 NSCLC): > 100 µM
- GI50 (KM12 colon): > 100 µM
- TGI (KM12 colon): > 100 µM
- GI50 (MDA-MB-231 breast): > 100 µM
- TGI (MDA-MB-231 breast): > 100 µM
- GI50 (NCI-H23 lung): > 100 µM
- TGI (NCI-H23 lung): > 100 µM
- GI50 (NCI-H522 lung): > 100 µM
- TGI (NCI-H522 lung): > 100 µM
- GI50 (SK-MEL-2 melanoma): > 100 µM
- TGI (SK-MEL-2 melanoma): > 100 µM
- GI50 (SN12C renal): > 100 µM
- TGI (SN12C renal): > 100 µM

Compound: COc1ccc(C2CC(c3cccc(OC)c3)=NN2C(=O)c2cc(OC)c(OC)c(OC)c2)cc1 (stereo not given)
- GI50 (786-0 renal): 2.25 µM
- TGI (786-0 renal): > 100 µM
- GI50 (EKVX NSCLC): 3.35 µM
- TGI (EKVX NSCLC): > 100 µM
- GI50 (HCT-15 colon): 1.07 µM
- TGI (HCT-15 colon): > 100 µM
- GI50 (HOP-62 NSCLC): > 23.1 µM
- TGI (HOP-62 NSCLC): > 100 µM
- GI50 (KM12 colon): 0.717 µM
- TGI (KM12 colon): > 100 µM
- GI50 (MDA-MB-231 breast): 1.94 µM
- TGI (MDA-MB-231 breast): > 100 µM
- GI50 (NCI-H23 lung): 2.76 µM
- TGI (NCI-H23 lung): > 100 µM
- GI50 (NCI-H522 lung): 2.66 µM
- TGI (NCI-H522 lung): > 22.1 µM
- GI50 (SK-MEL-2 melanoma): 10.3 µM
- TGI (SK-MEL-2 melanoma): > 100 µM
- GI50 (SN12C renal): 5.03 µM
- TGI (SN12C renal): > 100 µM

Compound: Cc1cccc2c(N=Nc3ccccc3[N+](=O)[O-])c(O)[nH]c12
- TGI (786-0 renal): 11.8 µM
- TGI (EKVX NSCLC): 33.6 µM
- TGI (HCT-15 colon): 97.7 µM
- TGI (HOP-62 NSCLC): 21.8 µM
- TGI (KM12 colon): > 58.6 µM
- TGI (MDA-MB-231 breast): 6.58 µM
- TGI (NCI-H23 lung): 23.4 µM
- TGI (NCI-H522 lung): 2.85 µM
- TGI (SK-MEL-2 melanoma): > 71.1 µM
- TGI (SN12C renal): 26.8 µM

Compound: CC(=O)[O][Hg][CH2]C1(C)COC(C)([CH2][Hg][O]C(C)=O)CO1 (stereo not given)
- GI50 (786-0 renal): 16.8 µM
- TGI (786-0 renal): 31 µM
- GI50 (EKVX NSCLC): 18.4 µM
- TGI (EKVX NSCLC): 36.3 µM
- GI50 (HCT-15 colon): 0.432 µM
- TGI (HCT-15 colon): 0.9 µM
- GI50 (HOP-62 NSCLC): 40.5 µM
- TGI (HOP-62 NSCLC): > 63.5 µM
- GI50 (KM12 colon): 4.1 µM
- TGI (KM12 colon): 8.4 µM
- GI50 (MDA-MB-231 breast): 12.5 µM
- TGI (MDA-MB-231 breast): 29.2 µM
- GI50 (NCI-H23 lung): 13.2 µM
- TGI (NCI-H23 lung): 29.3 µM
- GI50 (NCI-H522 lung): 12.1 µM
- TGI (NCI-H522 lung): 33 µM
- GI50 (SK-MEL-2 melanoma): 4.31 µM
- TGI (SK-MEL-2 melanoma): 16.4 µM
- GI50 (SN12C renal): 0.887 µM
- TGI (SN12C renal): 4.49 µM

Compound: NC(=S)N/N=C/c1ccc(OC(=O)COc2ccccc2)cn1
- GI50 (786-0 renal): 3.89 µM
- TGI (786-0 renal): > 100 µM
- GI50 (EKVX NSCLC): 40 µM
- TGI (EKVX NSCLC): > 100 µM
- GI50 (HCT-15 colon): 20.2 µM
- TGI (HCT-15 colon): > 100 µM
- GI50 (HOP-62 NSCLC): 11.1 µM
- TGI (HOP-62 NSCLC): 80.8 µM
- GI50 (KM12 colon): 3.16 µM
- TGI (KM12 colon): > 100 µM
- GI50 (MDA-MB-231 breast): 8.27 µM
- TGI (MDA-MB-231 breast): > 100 µM
- GI50 (NCI-H23 lung): 4.49 µM
- TGI (NCI-H23 lung): > 100 µM
- GI50 (NCI-H522 lung): 8.6 µM
- TGI (NCI-H522 lung): 57.2 µM
- GI50 (SK-MEL-2 melanoma): > 100 µM
- TGI (SK-MEL-2 melanoma): > 100 µM
- GI50 (SN12C renal): 5.3 µM
- TGI (SN12C renal): > 100 µM

Compound: COc1ccc(Nc2ncc(-c3ccccc3)o2)cc1OC
- GI50 (786-0 renal): 11.6 µM
- TGI (786-0 renal): > 25 µM
- GI50 (EKVX NSCLC): > 25 µM
- TGI (EKVX NSCLC): > 25 µM
- GI50 (HCT-15 colon): 10.6 µM
- TGI (HCT-15 colon): > 25 µM
- GI50 (HOP-62 NSCLC): > 25 µM
- TGI (HOP-62 NSCLC): > 25 µM
- GI50 (KM12 colon): 4.35 µM
- TGI (KM12 colon): > 25 µM
- GI50 (MDA-MB-231 breast): > 25 µM
- TGI (MDA-MB-231 breast): > 25 µM
- GI50 (NCI-H23 lung): > 25 µM
- TGI (NCI-H23 lung): > 25 µM
- GI50 (NCI-H522 lung): 9.33 µM
- TGI (NCI-H522 lung): > 25 µM
- GI50 (SK-MEL-2 melanoma): 18.4 µM
- TGI (SK-MEL-2 melanoma): > 25 µM
- GI50 (SN12C renal): > 21.6 µM
- TGI (SN12C renal): > 25 µM
